Data on 40 compounds can be found in patent publication US12612412B2, “Antiviral heterocyclic compounds” (Enanta Pharmaceuticals, Inc., priority 2021, dated 2026).

Like-named read-outs stand apart in the source and are kept apart here.

The subject of assay [1] is genotype A, "Long" strain RSV. Description: RSV-A assay (CPE protection in Hep-2 cells, ATPlite readout). Particulars: human respiratory syncytial virus, MOI 0.1, CPE protection. The assay is classed as cell-based, Human respiratory syncytial virus (HRSV). The method in brief: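 In this cytopathic-effect protection format, infected Hep-2 cultures (MOI 0.1) are exposed to compound for 5 days. Surviving cell ATP is quantified with ATPlite, and EC50 is determined.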

The test system of assay [2] is HMPV clinical isolate TN/1501/A1. Description: HMPV antiviral assay Method-B (clinical isolate TN/1501/A1 in LLC-MK2 cells, ATP-Lite readout). The assay is classed as cell-based, Human metapneumovirus (HMPV). As to conditions: human metapneumovirus, LLC-MK2, 144 h, hMPV WT1501 (clinical isolate TN/1501/A1), 6 days. Put shortly: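 EC50 derived by four-parameter logistic fit of percent cell health, measured by ATP-Lite luminescence and normalised to virus-only and uninfected-cell controls. Compounds run in duplicate from 10 μM top, 3-fold, 10 points. Infection: LLC-MK2 cells, MOI 0.014, 2 μg/mL final TPCK-trypsin, serum-free, 6 days at 37° C.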

Setting [3] is: RSV-A Long strain, read-out: Human RSV-A (“Long”) EC50.
Setting [4] is: genotype A “Long” strain RSV, read-out: Human RSV-A (“Long”).

Take `COc1cc(C(=O)NC[C@](O)(c2cc3c(c(-c4ccc(F)cc4)n2)OC[C@@]3(CF)C(N)=O)C2CC2)cc2cn(C(F)F)nc12` [Example 1061]: the results for the EC50 in assay [1] (setting [3]) and in assay [2] were more than 200 nM and more than 500 nM, respectively.
Take `COc1cc(C(=O)NC[C@](O)(c2cc3c(c(-c4ccc(F)c(Cl)c4)n2)OC[C@]3(C)C(N)=O)C2(F)CC2)cc2cc(C3CC3)nn12` [Example 718]: the EC50 is less than 200 nM in assay [1] (setting [4]) and more than 500 nM in assay [2].
Turning to `COc1cc(C(=O)NCC(O)(c2cc3c(c(-c4cc(F)c(F)c(F)c4)n2)OC[C@]3(C)C(N)=O)C(F)(F)F)cc2cn(C3CC3)nc12` (some centres unmarked) [Example 916], the values for the EC50 in assay [1] (setting [3]) and in assay [2] were less than 200 nM and less than 500 nM, respectively.
In the case of `C[C@]1(C(N)=O)COc2c1cc([C@@](O)(CNC(=O)c1cc(F)c3nn(C4(F)CC4)cc3c1)C1CC1)nc2-c1ccc2c(c1)OC(F)(F)O2` [Example 848], the EC50 was less than 200 nM in assay [1] (setting [3]) and less than 500 nM in assay [2].
On the same counts, the results for `COc1cc(C(=O)NC[C@](O)(c2cc3c(c(-c4ccc(F)c(F)c4Cl)n2)OC[C@]3(C)C(N)=O)C2CC2)cc2cc(C)cnc12` [Example 1195] are less than 200 nM and less than 500 nM.
With `COc1cc(C(=O)NC[C@](O)(c2cc3c(c(-c4ccc(F)c(F)c4)n2)OC[C@]3(C)C(N)=O)C2CC2)cc2cn(C3CC3)nc12` [Example 534], the EC50 in assay [1] (setting [4]) was less than 200 nM; in assay [2], less than 500 nM.
Taken in the same sequence, the figures for `COc1cc(C(=O)NC[C@](O)(c2cc3c(c(-c4ccc(F)c(F)c4F)n2)OC[C@]3(C)C(N)=O)C2CC2)cc2cn(C(F)F)nc12` [Example 528] were less than 200 nM and less than 500 nM.
Turning to `COc1cc(C(=O)NC[C@](O)(c2cc3c(c(-c4cc(F)c(F)c(Cl)c4)n2)OC[C@]3(C)C(N)=O)C2CC2)cc2cn(C(F)F)nc12` [Example 788], the EC50 was less than 200 nM in assay [1] (setting [4]) and less than 500 nM in assay [2].
Turning to `COc1cc(C(=O)NC[C@](O)(c2cc3c(c(-c4cccc(Cl)c4)n2)OC[C@]3(C)C(N)=O)C(F)(F)F)cc2cn(C3CC3)nc12` [Example 975], the EC50 is less than 200 nM in assay [1] (setting [3]) and less than 500 nM in assay [2].
In the case of `COc1cc(C(=O)NC[C@](O)(c2cc3c(c(-c4ccc(F)c(F)c4F)n2)OC[C@]3(C)C(N)=O)C2(F)CC2)cc2cn(C3CC3)nc12` [Example 729], the results for the EC50 in assay [1] (setting [4]) and in assay [2] were less than 200 nM and less than 500 nM, respectively.
For the compound `COc1cc(C(=O)NC[C@](O)(c2cc3c(c(-c4ccc5c(c4)OC(F)(F)O5)n2)OC[C@]3(C)C(N)=O)C2CC2)cn2cc(C3CC3)nc12` [Example 828], the figures for the EC50 in assay [1] (setting [3]) and in assay [2] were less than 200 nM and less than 500 nM, respectively.
With `COc1cc(C(=O)NC[C@](O)(c2cc3c(c(-c4ccc5c(c4)OC(F)(F)O5)n2)OC[C@@]3(C(N)=O)C(F)F)C(F)(F)F)cc2cc(Cl)c(C)nc12` [Example 1037], the EC50 in assay [1] (setting [3]) is less than 200 nM; in assay [2], less than 500 nM.
Consider `Cc1cnc2c(OC(F)F)cc(C(=O)NC[C@](O)(c3cc4c(c(-c5cc(Cl)ccc5F)n3)OC[C@]4(C)C(N)=O)C3(F)CC3)cc2c1` [Example 736], for which the EC50 in assay [1] (setting [4]) was less than 200 nM; in assay [2] it was less than 500 nM.
In the case of `COc1cc(C(=O)NC[C@](O)(c2cc3c(c(-c4cc(Br)c(F)cc4F)n2)OC[C@]3(C)C(N)=O)C2CC2)cc2cn(C(F)F)nc12` [Example 1097], the EC50 in assay [1] (setting [3]) is less than 200 nM; in assay [2], less than 500 nM.
For `COc1cc(C(=O)NC[C@](O)(c2cc3c(c(-c4ccc(F)c(F)c4F)n2)OC[C@]3(C)C(N)=O)C2(F)CC2)cc2cc(Cl)c(C)nc12` [Example 731], the EC50 in assay [1] (setting [4]) was less than 200 nM; in assay [2] it was less than 500 nM.
Consider `Cc1nc2c(OC3CC3)cc(C(=O)NC[C@](O)(c3cc4c(c(-c5ccc(F)cc5Cl)n3)OC[C@]4(C)C(N)=O)C(F)(F)F)cc2cc1Cl` [Example 518], for which the EC50 was less than 200 nM in assay [1] (setting [4]) and less than 500 nM in assay [2].
Consider `COc1cc(C(=O)NC[C@](O)(c2cc3c(c(N4CCOCC4)n2)OC[C@]3(C)C(N)=O)C(F)(F)F)cc2cn(C3CC3)nc12` [Example 1269], for which the figures for the EC50 in assay [1] (setting [3]) and in assay [2] were more than 200 nM and more than 500 nM, respectively.
On to `COc1cc(C(=O)NC[C@](O)(c2cc3c(c(-c4cc(Cl)c(F)c(Cl)c4)n2)OC[C@]3(C)C(N)=O)C(F)(F)F)cc2cn(C3CC3)nc12` [Example 669], for which the EC50 in assay [1] (setting [4]) was less than 200 nM; in assay [2], more than 500 nM.
With `[2H]C([2H])([2H])[C@](O)(CNC(=O)c1cc(OC2CC2)c2ncccc2c1)c1cc2c(c(-c3ccc(F)cc3)n1)OC[C@]2(C)C(N)=O` [Example 646], the EC50 in assay [1] (setting [4]) is less than 200 nM; in assay [2], more than 500 nM.
For the compound `COc1cc(C(=O)NC[C@](O)(c2cc3c(c(-c4ccc5c(c4)OC(F)(F)O5)n2)OC[C@]3(C)C(N)=O)C(F)(F)F)cc2cc(Cl)c(C)nc12` [Example 640], the EC50 in assay [1] (setting [4]) was less than 200 nM; in assay [2] it was less than 500 nM.
As for `COc1cc(C(=O)NC[C@](O)(c2cc3c(c(-c4ccc(OC(F)(F)F)cc4)n2)OC[C@]3(C)C(N)=O)C(F)(F)F)cc2cn(C3CC3)nc12` [Example 898], the EC50 in assay [1] (setting [3]) is less than 200 nM; in assay [2], more than 500 nM.
Taken in the same sequence, the figures for `COc1cc(C(=O)NC[C@](O)(c2cc3c(c(-c4ccc(F)cc4)n2)OC[C@@]3(C(N)=O)C(F)F)C(F)(F)F)cc2cc(Cl)c(C)nc12` [Example 1001] were less than 200 nM and less than 500 nM.
`COc1cc(C(=O)NC[C@](O)(c2cc3c(c(-c4ccc(F)c(Cl)c4)n2)OC[C@]3(C)C(N)=O)C2(F)CC2)cc2sc(C)nc12` [Example 723]: the EC50 was less than 200 nM in assay [1] (setting [4]) and less than 500 nM in assay [2].
As for `COc1cc(C(=O)NC[C@](O)(c2cc3c(c(-c4ccc5ncccc5c4)n2)OC[C@]3(C)C(N)=O)C(F)(F)F)cc2cn(C3CC3)nc12` [Example 966], the EC50 was more than 200 nM in assay [1] (setting [3]) and more than 500 nM in assay [2].
Consider `COc1cc(C(=O)NC[C@](O)(c2cc3c(c(-c4ccc(F)c(Cl)c4F)n2)OC[C@]3(C)C(N)=O)C(F)(F)F)cc2cn(C3(F)CC3)nc12` [Example 550], for which the EC50 was less than 200 nM in assay [1] (setting [4]) and less than 500 nM in assay [2].
Turning to `C[C@]1(C(N)=O)COc2c1cc([C@@](O)(CNC(=O)c1cc(Cl)c3nn(C4CC4)cc3c1)C1(F)CC1)nc2-c1ccc(F)cc1` [Example 755], the EC50 is less than 200 nM in assay [1] (setting [4]) and less than 500 nM in assay [2].
Taken in the same sequence, the figures for `COc1ccc(C(=O)NC[C@](O)(c2cc3c(c(-c4ccc(F)cc4)n2)OC[C@]3(C)C(N)=O)C(F)(F)F)c2cc[nH]c12` [Example 693] were less than 200 nM and more than 500 nM.
Taken in the same sequence, the figures for `COc1cc(C(=O)NC[C@](O)(c2cc3c(c(-c4ccc(F)c(F)c4F)n2)OC[C@]3(C)C(N)=O)C(F)(F)F)cc2cc(Cl)c(C)nc12` [Example 506] were less than 200 nM and less than 500 nM.
Consider `C#Cc1ccc(-c2nc([C@@](O)(CNC(=O)c3cc(OC)c4nn(C5CC5)cc4c3)C(F)(F)F)cc3c2OC[C@]3(C)C(N)=O)cc1` [Example 982], for which the EC50 in assay [1] (setting [3]) is less than 200 nM; in assay [2], more than 500 nM.
Take `Cc1nc2c(OC3CC3)cc(C(=O)NC[C@](O)(c3cc4c(c(-c5ccc(F)c(F)c5F)n3)OC[C@]4(C)C(N)=O)C(F)(F)F)cc2cc1Cl` [Example 514]: the EC50 in assay [1] (setting [4]) is less than 200 nM; in assay [2], less than 500 nM.
For `COc1cc(C(=O)NC[C@](O)(c2cc3c(c(-c4cc(F)c(F)c(Cl)c4)n2)OC[C@]3(C)C(N)=O)C2CC2)cc2cn(C3CC3)nc12` [Example 787], the EC50 in assay [1] (setting [4]) is less than 200 nM; in assay [2], less than 500 nM.
On to `COc1cc(C(=O)NC[C@](O)(c2cc3c(c(-c4cc(Cl)c(F)c(Cl)c4)n2)OC[C@]3(C)C(N)=O)C(F)(F)F)cc2cc(Cl)c(C)nc12` [Example 674], for which the EC50 was less than 200 nM in assay [1] (setting [4]) and more than 500 nM in assay [2].
With `C[C@]1(C(N)=O)COc2c1cc([C@@](O)(CNC(=O)c1cc(OC3CC3)c3nc(Cl)ccc3c1)C1CC1)nc2-c1ccc(F)cc1` [Example 1193], the EC50 in assay [1] (setting [3]) is less than 200 nM; in assay [2], more than 500 nM.
As to `Cc1cnc2c(OC(F)F)cc(C(=O)NC[C@](O)(c3cc4c(c(-c5ccc(F)c(Cl)c5)n3)OC[C@]4(C)C(N)=O)C3(F)CC3)cc2c1` [Example 715], the EC50 in assay [1] (setting [4]) is less than 200 nM; in assay [2], less than 500 nM.
With `COc1cc(C(=O)NC[C@](O)(c2cc3c(c(-c4ccc(F)c(Cl)c4)n2)OC[C@@]3(CF)C(N)=O)C(F)(F)F)cc2cn(C3CC3)nc12` [Example 1051], the EC50 in assay [1] (setting [3]) was less than 200 nM; in assay [2], more than 500 nM.
`COc1cc(C(=O)NC[C@](O)(c2cc3c(c(-c4ccc(F)c(Cl)c4)n2)OC[C@]3(C)C(N)=O)C2(F)CC2)cc2cn(C3CC3)nc12` [Example 714]: the EC50 in assay [1] (setting [4]) was less than 200 nM; in assay [2], less than 500 nM.
As for `COc1cc(C(=O)NC[C@](O)(c2cc3c(c(-c4cc(Br)c(F)cc4F)n2)OC[C@]3(C)C(N)=O)C2CC2)cc2cn(C3CC3)nc12` [Example 1088], the figures for the EC50 in assay [1] (setting [3]) and in assay [2] were less than 200 nM and less than 500 nM, respectively.
Take `COc1cc(C(=O)NC[C@](O)(c2cc3c(c(-c4cc(F)c(F)cc4Cl)n2)OC[C@]3(C)C(N)=O)C(F)(F)F)cc2cn(C3CC3)nc12` [Example 654]: the EC50 is less than 200 nM in assay [1] (setting [4]) and less than 500 nM in assay [2].
For the compound `COc1cc(C(=O)NC[C@@](O)(c2cc3c(c(-c4cccc(Cl)c4F)n2)OC[C@]3(C)C(N)=O)C(F)(F)F)cc2cn(C3CC3)nc12` [Example 921], the EC50 in assay [1] (setting [3]) is more than 200 nM; in assay [2], more than 500 nM.
In the case of `COc1cc(C(=O)NC[C@](O)(c2cc3c(c(-c4cc(F)c(F)cc4F)n2)OC[C@]3(C)C(N)=O)C2CC2)cc2cc(Br)cnc12` [Example 1149], the EC50 was less than 200 nM in assay [1] (setting [3]) and less than 500 nM in assay [2].
